Consider 1 molecule from patent US9150527B2, “Metalloenzyme inhibitor compounds” (Innocrin Pharmaceuticals, Inc., priority 2011, dated 2015).

One assay deals with CYP17 (Rattus norvegicus (Rat), UniProt P11715). Briefly: CYP17 metalloenzyme activity, rat testicular microsomes. Type of assay: biochemical. Particulars: pooled rat testicular microsomes. Here is the method: CYP17 activity was assayed according to the following procedure.
A further assay addresses CYP2C9 (Homo sapiens (Human), UniProt P11712). Briefly: biochemical.
In another assay the target is CYP2C19 (Homo sapiens (Human), UniProt P33261). The assay can be described thus: biochemical.
CYP2C19, sequence (P33261 whole entry): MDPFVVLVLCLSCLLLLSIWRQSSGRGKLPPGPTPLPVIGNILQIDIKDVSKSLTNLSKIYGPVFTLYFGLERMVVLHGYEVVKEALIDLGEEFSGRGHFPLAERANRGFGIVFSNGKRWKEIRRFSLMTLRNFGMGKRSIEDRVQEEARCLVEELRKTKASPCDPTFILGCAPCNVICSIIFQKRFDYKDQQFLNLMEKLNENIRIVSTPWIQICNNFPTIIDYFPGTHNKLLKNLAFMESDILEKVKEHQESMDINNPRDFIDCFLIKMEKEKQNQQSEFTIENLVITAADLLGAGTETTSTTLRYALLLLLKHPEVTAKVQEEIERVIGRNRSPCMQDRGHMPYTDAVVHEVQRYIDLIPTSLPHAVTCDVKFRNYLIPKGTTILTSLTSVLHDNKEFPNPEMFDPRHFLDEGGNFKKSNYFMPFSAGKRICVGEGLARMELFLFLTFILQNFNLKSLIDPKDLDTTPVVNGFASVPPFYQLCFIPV
In another assay the target is CYP3A4 (Homo sapiens (Human), UniProt P08684). The assay can be described thus: Inhibition of liver cytochrome P450 enzymes, pooled human liver microsomes. On the technique in general: Microsomes from liver hold many membrane-bound enzymes, among them those of drug oxidation.
CYP3A4, sequence (P08684 whole entry): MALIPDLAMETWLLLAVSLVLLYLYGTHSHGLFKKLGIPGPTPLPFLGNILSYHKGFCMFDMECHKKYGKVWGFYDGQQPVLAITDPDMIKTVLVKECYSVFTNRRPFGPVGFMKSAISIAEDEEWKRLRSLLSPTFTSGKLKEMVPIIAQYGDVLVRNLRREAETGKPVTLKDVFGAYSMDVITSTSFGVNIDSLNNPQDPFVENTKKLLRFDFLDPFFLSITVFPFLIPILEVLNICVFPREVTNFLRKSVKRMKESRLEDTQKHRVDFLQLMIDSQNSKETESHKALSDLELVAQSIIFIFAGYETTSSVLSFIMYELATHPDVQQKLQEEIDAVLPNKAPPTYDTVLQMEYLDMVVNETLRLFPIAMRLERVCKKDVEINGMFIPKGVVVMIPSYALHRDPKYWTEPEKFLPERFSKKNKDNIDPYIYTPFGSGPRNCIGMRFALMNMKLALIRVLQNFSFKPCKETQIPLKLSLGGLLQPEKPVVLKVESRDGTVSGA

CYP17, sequence (P11715 whole entry): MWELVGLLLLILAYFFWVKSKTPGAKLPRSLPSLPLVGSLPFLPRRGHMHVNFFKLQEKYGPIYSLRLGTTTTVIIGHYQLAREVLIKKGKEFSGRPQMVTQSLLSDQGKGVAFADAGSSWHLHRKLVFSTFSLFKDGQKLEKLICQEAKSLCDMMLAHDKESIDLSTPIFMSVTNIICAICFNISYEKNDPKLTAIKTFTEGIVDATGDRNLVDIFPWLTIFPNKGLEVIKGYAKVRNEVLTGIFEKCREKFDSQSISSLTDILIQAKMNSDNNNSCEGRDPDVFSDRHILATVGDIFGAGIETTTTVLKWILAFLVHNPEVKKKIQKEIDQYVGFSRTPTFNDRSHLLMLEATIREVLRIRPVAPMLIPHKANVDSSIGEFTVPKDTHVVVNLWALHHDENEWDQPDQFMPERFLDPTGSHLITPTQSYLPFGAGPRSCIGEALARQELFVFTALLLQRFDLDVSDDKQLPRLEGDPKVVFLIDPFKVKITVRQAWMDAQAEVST
CYP2C9, sequence (P11712 whole entry): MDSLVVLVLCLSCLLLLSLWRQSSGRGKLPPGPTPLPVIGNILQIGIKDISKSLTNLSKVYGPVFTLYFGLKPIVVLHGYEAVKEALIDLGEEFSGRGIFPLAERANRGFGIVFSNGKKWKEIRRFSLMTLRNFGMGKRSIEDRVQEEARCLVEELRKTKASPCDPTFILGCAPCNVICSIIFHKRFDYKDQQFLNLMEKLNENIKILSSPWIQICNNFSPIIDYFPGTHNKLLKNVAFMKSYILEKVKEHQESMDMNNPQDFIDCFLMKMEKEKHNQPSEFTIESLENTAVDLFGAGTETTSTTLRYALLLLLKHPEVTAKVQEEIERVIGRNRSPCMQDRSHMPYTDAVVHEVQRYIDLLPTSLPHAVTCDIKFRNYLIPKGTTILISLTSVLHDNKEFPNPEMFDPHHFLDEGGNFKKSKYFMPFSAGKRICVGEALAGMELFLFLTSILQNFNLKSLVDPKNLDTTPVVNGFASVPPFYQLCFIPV

What is called IC50 is the concentration needed to halve the response being measured. Lower therefore signals greater potency in that assay. In the case of `COc1cc2ccc(C(O)(c3cncs3)C(C)C)cc2cc1OC` (stereo not shown) [Example 2, 1-(6,7-dimethoxynaphthalen-2-yl)-2-methyl-1-(thiazol-5-yl)propan-1-ol], the 50% inhibitory concentration (IC50) against CYP17 stood at 290 nM; on CYP2C9, 33000 nM; at CYP2C19, 3000 nM; against CYP3A4 it was 770 nM.
